{"source": "patent US9168297B2", "about": "“Regulation of skin pigmentation by neuregulin-1 (NRG-1)” (The United States of America, as Represented by the …, priority 2010, dated 2015)", "key": {"HEM-DP melanocytes": {"system": "HEM-DP melanocytes", "test": "Melanin content assay (melanin/protein)", "type": "cell-based, human", "details": "for Pigmentation: 8-mer peptides 100 nM, every day for 9 days, vs vehicle", "protocol": "FIGS. 6A and 6B are bar graphs illustrating the effect of NRG-1 on the pigmentation of cultured human melanocytes. FIG. 6A) Lightly-pigmented (HEM-LP) and FIG. 6B) Darkly-pigmented (HEM-DP) melanocytes were treated with or without NRG-1 (50 ng/ml) for 1, 3, 5 or 9 days and proteins were extracted from each sample. After centrifugation at 10,000 g for 15 minutes, precipitates were analyzed for melanin content, and the supernatants were analyzed for protein content. Results are the average of three studies±SD; statistically significant differences are indicated.\nFIGS. 9A and 9B are digital images illustrating the effect of pan-ERBB inhibitors on NRG-1 action on human melanocytes and MelanoDerms. FIG. 9A) HEM-DP melanocytes were treated for 9 days with 50 ng/ml NRG-1 in the presence of C39 (0.5 μM) or CI-1033 (2 μM) or vehicle (DMSO) alone. The results are the averages of 3 independent studies±SD. FIG. 9B) Dark MelanoDerms were treated for 9 days with 50 ng/ml NRG-1 in the presence of C39 (0.5 μM) or CI-1033 (2 μM) or vehicle (DMSO) alone. L values shown are the average of 3 spots measured in the center of each Melanoderm.\nMelanin contents were determined by dissolving cell pellets overnight at room temperature in 200 μl 1 N NaOH, and melanin concentrations were quantitated by absorbance at 405 nm in a SpectraMax 250 ELISA reader (Molecular Devices) using a standard curve generated from synthetic melanin (Sigma-Aldrich, St. Louis, Mo.). Melanin content is expressed as μg melanin per μg protein. Each study was repeated at least three times.\nThe effects of NRG-1 on the pigmentation of human melanocytes were also examined. […] However, on day 9, when the cells had reached confluence, the pigmentation level of NRG-1-treated HEM-LP melanocytes was about 35% higher than the control (FIG. 6A).\nThe EGF domain of NRG-1 can activate the NRG-1 receptors. Two exemplary EGF domains of NRG-1 were aligned (SEQ ID NOs: 9 and 10) and 5 different […] peptides within these two sequences were designed (FIG. 12). Darkly-pigmented human epidermal melanocytes (HEM-DP) were treated with each of the […] peptides (100 nM) or the commercially available rhNRG-1 (6.25 nM) or the vehicle only (0.1% BSA in PBS) every other day for 7 days.\nIn particular, HEM-DP were treated with each of the 8-mer peptides (WC-6, […], amino acids 3-10 of SEQ ID NO: 10; WC-7, […], amino acids 8-15 of SEQ ID NO: 10; WC-8, […], amino acids 12-19 of SEQ ID NO: 10; WC-9, […], amino acids 16-23 of SEQ ID NO: 10; WC-10, […], amino acids 20-27 of SEQ ID NO: 10; 100 nM) or the full length EGF domain of NRG-1 (WC-11, SEQ ID NO: 10, 100 nM) or the commercially available rhNRG-1 (SEQ ID NO: 11, 6.25 nM) or vehicle only (0.1% BSA in PBS) every day for 9 days."}, "[1]": {"system": "MelanoDerm 3-D reconstructed human skin", "test": "Pigmentation of 3-D reconstructed skin (MelanoDerm), L value and microscopy", "type": "cell-based", "details": "dark MelanoDerms, 9 days, NRG-1 50 ng/ml with C39 0.5 μM or CI-1033 2 μM, vs control", "protocol": "Light, Medium, and Dark human epidermal equivalents (MelanoDerm®) were purchased from MatTek Corp. (Ashland, Mass.). MelanoDerms were grown at the air/liquid interface of the maintenance medium MEL-LLMM (MatTek Corp.), and the culture medium was renewed every 2 days. Where noted, MelanoDerms were treated for 9 days with 50 ng/ml NRG-1 (rhNRG-1-β1, R&D Systems, Minneapolis, Minn.) prepared in phosphate-buffered saline (PBS) with 0.1% bovine serum albumin (BSA) and MelanoDerm maintenance medium. The same concentrations of PBS and BSA were used for mock-treated controls.\nFor the studies where the MelanoDerms were treated with NRG-1 and/or various pan-ERBB inhibitors, Dark MelanoDerms were first incubated with a pan-ERBB inhibitor (0.5 μM Compound 39, EMD Chemicals, Gibbistown, N.J. or 2 μM CI-1033, Selleck Chemicals LLC, US) for 30 minutes or with vehicle (DMSO) only before treatment with 50 ng/ml NRG-1; identical amounts of DMSO (0.02%) were added to all samples. Treatment was renewed every 2 days in fresh medium and was continued for 9 days.\nThree dimensional (3-D) reconstructed human skin models (termed MelanoDerms) were used to test the effects of NRG-1 on skin pigmentation. Three types of MelanoDerm, ‘light’ ([…]), ‘medium’ ([…]) and ‘dark’ ([…]), were used to compare the effects of NRG-1 on those three types of skin. In preliminary studies to optimize the concentration of NRG-1 (from 10 to 200 ng/ml were tested, FIG. 10), 50 ng/ml was chosen which was consistent with concentrations of NRG-1 used for other cell types by other groups. NRG-1 was added to the MelanoDerm media at 50 ng/ml and the medium was replenished every 2 days. On day 9, the MelanoDerms treated with NRG-1 were compared to controls treated only with vehicle. Pigmentation of the skin was assessed using the L value, higher L values indicating lighter colors. […] It should be noted that relatively small changes in ΔL can represent relatively large changes in visible skin color. For example, the mean L value of White/Caucasian skin is 67, that of Asians, Pacific-Islanders is 65, that of Hispanic/Latinos is 64, and that of American Indian/Alaska Native is 62. […] In the vehicle-treated control MelanoDerms, melanin pigment was more evenly distributed throughout the entire epidermis and no visible melanin accumulation was observed around melanocytes (FIG. 3B). […] Therefore, NRG-1 leads to visible increases in pigmentation in the MelanoDerms which was greater as the skin had more constitutive pigmentation."}, "ERBB2": {"system": "ERBB2", "test": "ERBB2 protein level by western blotting in melanocytes", "type": "cell-based, human", "details": "HEM-LP and HEM-DP, NRG-1 50 ng/ml together with MG132 120 nM", "protocol": "FIGS. 7A and 7B are digital images illustrating expression of ERBBs after NRG-1 treatment. FIG. 7A) HEM-LP and HEM-DP melanocytes were treated with or without NRG-1 (50 ng/ml) for 5 days, and levels of ERBB2, ERBB3 or ERBB4 were detected by western blotting. Results shown are representative of three studies. FIG. 7B) Expression of ERBB2 was examined in HEM-LP and in HEM-DP melanocytes after 1 or 9 days or treatment with NRG-1 compared to vehicle-treated controls; the results are representative of two independent studies.\nFIGS. 8A and 8B are digital images illustrating the mechanism of ERBB2 abrogation after NRG-1 treatment. FIG. 8A) ERBB2 mRNA levels in HEM-LP and in HEM-DP melanocytes were detected by RT-PCR after treatment with or without NRG-1 (50 ng/ml) for 1 day. FIG. 8B) MG132 (120 nM) was added to the melanocyte culture medium to inhibit proteasomal degradation during treatment of HEM-LP and HEM-DP melanocytes with or without NRG-1 (50 ng/ml). Proteins were extracted for each sample, and ERBB2 levels were detected by western blotting. Results are representative of three studies.\nFibroblast cultures in 100-mm dishes were solubilized in appropriate volumes of M-PER mammalian protein extraction reagent (Pierce Biotechnology, Rockford, Ill.) containing a Protease Inhibitor mixture (Roche, Mannheim, Germany) and phosphatase inhibitors. The protein concentration of each extract was measured using a BCA protein assay kit (Pierce, Rockford, Ill.). Cell extracts (20 μg) were separated on 8-16% gradient SDS polyacrylamide gels (Invitrogen, Carlsbad, Calif.), after which proteins were transferred to PVDF membranes (Invitrogen, Carlsbad, Calif.). Membranes were blocked for 1 hour in PBS or Tris buffered saline (TBS) containing 0.1% Tween 20 and 5% (w/v) nonfat dry milk powder and were incubated overnight at 4° C. with the primary antibody in PBS containing 0.1% Tween 20 and 2.5% (w/v) nonfat dry milk powder or in 0.1% Tween-TBS with 5% BSA, depending on the antibody. The following primary antibodies were used: anti-human DKK-1 (0.2 μg/ml), anti-human DKK-3 (0.1 μg/ml), anti-human bFGF (0.1 μg/ml), anti-human SCF (0.1 μg/ml), anti-human mouse monoclonal ERBB3 (1 μg/ml) and anti-human mouse monoclonal ERBB4 (2 μg/ml) antibodies from R&D Systems, neuregulin-1α/β1/2 (C-20) (1:500) and GAPDH (FL-335) (1:10,000) antibodies from Santa Cruz Biotechnology, ERBB2 rabbit monoclonal (1:1000) and phospho-Akt (Ser473) (1:1000) antibodies from Cell Signaling Technology. Membranes were then incubated with an HRP-linked anti-rabbit antibody (GE Healthcare) at 1:10,000 dilution or with an anti-goat antibody (DAKO) at 1:2,000 dilution at room temperature for 1 hour. Antigen-antibody complexes were detected using an ECL-plus Western blotting detection system (GE Healthcare). […]"}, "MelanoDerm Skin Model": {"system": "MelanoDerm Skin Model", "test": "Melanogenesis in MelanoDerm skin model, L-[14C]tyrosine assay", "type": "cell-based, human", "details": "30 μM lipoic acid, positive control, means ± SEM, Control 100%", "from_the_text": "Fibroblasts regulate the distinctive pigmented and thick morphology of skin on the palms and soles compared to the remainder of the body via a factor they secrete termed DKK1. […] [table]"}}, "note": "Residues, ends and D or L forms follow the SMILES beside them. *: point of attachment. Cbz = O=C(OCc1ccccc1)*"}
{"compound": "C=CC(=O)Nc1cc2c(Nc3ccc(F)c(Cl)c3)ncnc2cc1OCCCN1CCOCC1", "note": "[CI-1033, reference compound]", "values": [{"measurement": "Melanin content, inhibitor alone", "setting": "HEM-DP melanocytes; 9 days, C39 0.5 μM or CI-1033 2 μM alone", "value": "did not affect"}, {"measurement": "Melanin content, NRG-1 in the presence of ERBB inhibitor", "setting": "HEM-DP melanocytes; 9 days, NRG-1 50 ng/ml with C39 0.5 μM or CI-1033 2 μM", "value": "remained at the same level as the control"}, {"measurement": "Pigmentation of MelanoDerms, NRG-1 in the presence of ERBB inhibitor", "setting": "[1]", "value": "did not increase the pigmentation"}]}
{"compound": "CC(C)C[C@@H](C=O)NC(=O)[C@H](CC(C)C)NC(=O)[C@H](CC(C)C)NC(=O)OCc1ccccc1", "note": "[MG132, reference compound] (Cbz-Leu-Leu-Leu-aldehyde)", "values": [{"measurement": "Level of ERBB2 protein", "setting": "ERBB2", "value": "returned to the control level"}]}
{"compound": "O=C(O)CCCC[C@@H]1CCSS1", "note": "(racemic) [Lipoic acid, lipoic acid]", "values": [{"measurement": "Melanogenesis", "setting": "MelanoDerm Skin Model", "value": "2 ± 2", "unit": "%"}]}
{"compound": "WC-03: 16-mer NRG-1 peptide including amino acids 8-23 of SEQ ID NO: 9 (FMVKDLSNPSRYLCKC)", "values": [{"measurement": "Pigmentation (melanin) compared to control", "setting": "HEM-DP melanocytes; 16-mer peptides 100 nM, every other day for 7 days, n=4", "value": "highest increase in pigmentation"}]}
{"compound": "WC-9: 8-mer peptide PSRYLCKC, amino acids 16-23 of SEQ ID NO: 10", "values": [{"measurement": "Pigmentation", "setting": "HEM-DP melanocytes", "value": "statistically significant increases of pigmentation"}]}
{"compound": "WC-10: 8-mer peptide LCKCPNEF, amino acids 20-27 of SEQ ID NO: 10", "values": [{"measurement": "Pigmentation", "setting": "HEM-DP melanocytes", "value": "statistically significant increases of pigmentation"}]}
